# Source: US7666646B2, “Crystal structure of human Pim-1 kinase protein complexes and binding pockets thereof, and uses thereof in drug design” (priority 2003, dated 2010)
# Where two headings read alike, the source gives them in different places.
# What was measured:
# [1] = target: Casein kinase 2 (CK2) (Homo sapiens, UniProt P68400); conditions: Davies et al., supra; read-out: IC50 / potency of Casein kinase 2 inhibition; cited from earlier work
# [2] = system: PI3K; conditions: cited from earlier work
# [3] = target: PKA (Homo sapiens, UniProt P17612); conditions: in the presence of 50 μM LY294002; cited from earlier work
# [4] = target: Pim-1 (Homo sapiens, UniProt P11309); test: Coupled-enzyme kinase assay with S6 peptide substrate (Pim-1 IC50 determination); format: biochemical
# Experimental: The assay was carried out in a total volume of 100 μl in 0.1 M HEPES buffer (pH 7.6) containing 10 mM MgCl2, 2.5 mM phosphoenolpyruvate, 0.2 mM NADH, 30 μg/ml pyruvate kinase, 10 μg/ml lactate dehydrogenase (Roche Diagnostics Corp., Indianapolis, Ind.) and 2 mM DTT in a 96-well plate, and read at 340 nm at 30° C. on a Spectramax spectrophotometer (Molecular Devices, Sunnyvale, Calif.). […] The reaction was started by addition of ATP after 10 minutes pre-incubation of the reaction mixture at 30° C. […] Kinetic analysis was performed by non-linear regression fitting using the program Prism (GraphPad software, San Diego, Calif., USA).
# Sequence of Pim-1 (P11309 whole entry): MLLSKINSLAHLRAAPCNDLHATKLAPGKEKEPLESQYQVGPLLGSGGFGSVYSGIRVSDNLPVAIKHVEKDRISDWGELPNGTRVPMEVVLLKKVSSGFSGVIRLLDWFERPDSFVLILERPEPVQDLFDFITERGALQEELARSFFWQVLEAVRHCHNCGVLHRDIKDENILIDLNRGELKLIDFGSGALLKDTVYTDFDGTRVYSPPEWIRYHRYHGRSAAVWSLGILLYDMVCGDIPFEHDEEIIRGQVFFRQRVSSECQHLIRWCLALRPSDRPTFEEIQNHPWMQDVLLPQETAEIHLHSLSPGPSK
# Sequence of Casein kinase 2 (CK2) (P68400 whole entry): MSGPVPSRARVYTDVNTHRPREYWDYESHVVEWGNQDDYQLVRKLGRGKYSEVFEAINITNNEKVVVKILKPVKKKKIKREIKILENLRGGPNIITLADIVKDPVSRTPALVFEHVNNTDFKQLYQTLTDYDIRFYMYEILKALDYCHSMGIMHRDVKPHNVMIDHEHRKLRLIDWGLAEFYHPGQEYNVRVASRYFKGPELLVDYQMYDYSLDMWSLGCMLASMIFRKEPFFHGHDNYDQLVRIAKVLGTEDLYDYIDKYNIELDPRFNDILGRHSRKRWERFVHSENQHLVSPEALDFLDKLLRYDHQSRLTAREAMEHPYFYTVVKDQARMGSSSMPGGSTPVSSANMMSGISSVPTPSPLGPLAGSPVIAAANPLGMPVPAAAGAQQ
Structure (SMILES),IC50 [1] [µM],"IC50 ([2]; Davies et al., Biochem. J. 351: 95-105 (2000), read-out: potency of PI3K inhibition reported by Davies et al.) [µM]","IC50 ([2]; Mizuno et al., FEBS Lett. 330: 114-116 (1993) as cited, read-out: IC50 for PI3K, as originally described) [µM]",reduction of PKA activity [3] [%],IC50 [4] [µM],"potency of Pim-1 inhibition ([4]; panel of kinase inhibitors, refers to Table 1)"
"O=c1cc(N2CCOCC2)oc2c(-c3ccccc3)cccc12 [LY294002, 2-(4-morpholinyl)-8-phenyl-4H-1-benzopyran-4-one]",6.9,[…],[…],9,,
COC(=O)[C@]1(O)C[C@@H]2O[C@@]1(C)n1c3ccccc3c3c4c(c5c6ccccc6n2c5c31)C(=O)NC4 [K-252a],,,,,0.15,sub-micromolar
